Columns and labels:
[1] = target: Hepatitis C virus serine protease, NS3/NS4A (Hepatitis C virus, UniProt A3EZI9+D2K2A8); test: (§1) Inhibitory activity against Hepatitis C virus Non structural protein 3 serine protease/Non structural protein 4A serine protease; type: protein-complex assay, Hepacivirus hominis
[2] = plasma clearance in rats; type: ADME, organism-based; details: rat
[3] = Area under curve in rats; type: ADME; details: rat, in vivo
[4] = target: T1, Hepatitis C virus serine protease, NS3/NS4A (Hepatitis C virus, UniProt D2K2A8+A3EZI9); test: as §1; type: protein-complex assay, Hepacivirus hominis
T1 sequence (D2K2A8 whole entry): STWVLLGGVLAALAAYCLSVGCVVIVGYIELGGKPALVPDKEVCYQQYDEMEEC
T1 sequence (A3EZI9 whole entry): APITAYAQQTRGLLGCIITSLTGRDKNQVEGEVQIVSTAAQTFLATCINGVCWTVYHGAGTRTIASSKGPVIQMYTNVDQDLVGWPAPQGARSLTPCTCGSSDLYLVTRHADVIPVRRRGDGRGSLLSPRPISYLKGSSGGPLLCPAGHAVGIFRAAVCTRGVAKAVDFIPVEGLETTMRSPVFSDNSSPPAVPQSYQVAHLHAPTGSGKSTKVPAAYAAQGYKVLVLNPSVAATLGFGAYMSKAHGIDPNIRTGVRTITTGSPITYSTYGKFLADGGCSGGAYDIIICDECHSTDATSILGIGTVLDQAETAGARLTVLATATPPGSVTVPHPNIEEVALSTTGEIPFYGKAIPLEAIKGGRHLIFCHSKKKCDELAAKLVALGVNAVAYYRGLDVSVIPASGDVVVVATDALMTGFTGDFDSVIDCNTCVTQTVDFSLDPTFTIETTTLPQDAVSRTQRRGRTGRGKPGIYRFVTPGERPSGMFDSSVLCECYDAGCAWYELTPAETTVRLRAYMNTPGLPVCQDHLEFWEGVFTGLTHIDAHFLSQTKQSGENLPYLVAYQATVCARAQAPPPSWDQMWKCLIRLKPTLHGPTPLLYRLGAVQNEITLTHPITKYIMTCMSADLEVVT

[5] = Volume distribution in rats; type: ADME, organism-based; details: rat, in vivo; read-out: Vdss
[6] = Half life in rats; type: ADME; details: rat, in vivo
[7] = Volume distribution in rats at 2 mg/kg; type: ADME, organism-based; design: dose 2 mg/kg; details: rat, in vivo, read-out: Vdss
[8] = Area under curve in rats at 2 mg/kg; type: ADME, organism-based; design: dose 2 mg/kg; details: rat, in vivo
[9] = plasma clearance in rats at 2 mg/kg; type: ADME, organism-based; design: dose 2 mg/kg; details: rat
[10] = Half life in rats at 2 mg/kg; type: ADME, organism-based; design: dose 2 mg/kg; details: rat, in vivo
[11] = target: T1, Hepatitis C virus serine protease, NS3/NS4A; test: Inhibitory activity against Hepatitis C virus Non structural protein 3 serine protease/Non structural protein 4A serine protease: Not active at 50 uM; type: protein-complex assay, Hepacivirus hominis

Hepatitis C virus serine protease, NS3/NS4A (Hepatitis C virus, UniProt A3EZI9+D2K2A8), sequence (D2K2A8 whole entry): as the sequence (D2K2A8 whole entry) above
Hepatitis C virus serine protease, NS3/NS4A (Hepatitis C virus, UniProt A3EZI9+D2K2A8), sequence (A3EZI9 whole entry): as the sequence (A3EZI9 whole entry) above

Work on `COc1ccc2c(O[C@@H]3C[C@@H](C(=O)N[C@@H](CC(F)F)C(=O)NCCc4c(F)cc(C(=O)O)cc4F)N(C(=O)[C@@H](NC(=O)OCC(C)C)C(C)C)C3)cc(-c3csc(NC(C)C)n3)nc2c1` yielded a Ki [1] of 20 nM.
`CC(C)COC(=O)N[C@H](C(=O)N1C[C@H](C2CCCCC2)C[C@H]1C(=O)N[C@@H](CC(F)F)C(=O)NCCc1cccc(NC(C(=O)O)c2ccccc2)c1)C(C)C` (some centres undefined) gave a Ki [1] of 650 nM.
Molecule `CC(C)COC(=O)N[C@H](C(=O)N1CC(c2ccccc2)C[C@@H]1C(=O)N[C@@H](CC(F)F)C(=O)NCCc1c(F)cc(C(=O)O)cc1F)C(C)C` (some centres undefined) has a clearance [2] of 36 mL/min/kg, an AUC [3] of 1.3 µM·h and a Ki [4] of 450 nM. The Vd [5] was 2.4 L/kg and the half-life [6] was 72 min.
Work on `CC(C)COC(=O)N[C@H](C(=O)N1CC(OCc2ccccc2)C[C@@H]1C(=O)N[C@@H](CC(F)F)C(=O)NCCc1c(F)cc(C(=O)O)cc1F)C(C)C` (stereo in doubt; cis) yielded a Ki [4] of 4500 nM.
In the case of `CC(C)COC(=O)N[C@H](C(=O)N1C[C@H](C2CCCCC2)C[C@H]1C(=O)N[C@@H](CC(F)F)C(=O)NCCc1c(F)cc(C(=O)NS(C)(=O)=O)cc1F)C(C)C`, the Vd [7] is reported as 0.8 L/kg, the Ki [1] is reported as 450 nM and the AUC [8] is reported as 0.9 µM·h. It also gave a clearance [9] of 46 mL/min/kg and a half-life [10] of 19 min.
Molecule `CC(C)COC(=O)N[C@H](C(=O)N1C[C@H](C2CCCCC2)C[C@H]1C(=O)N[C@@H](CC(F)F)C(=O)NCCc1c(F)ccc(OC(C)C(=O)O)c1F)C(C)C` (some centres undefined) has a Ki [1] of 120 nM.
For `COC(=O)c1cc(F)c(CCNC(=O)[C@H](CC(F)F)NC(=O)[C@@H]2C[C@@H](C3CCCCC3)CN2C(=O)[C@@H](NC(=O)OCC(C)C)C(C)C)c(F)c1`, the Ki [11] was “Not Active”.
Work on `CC(C)COC(=O)N[C@H](C(=O)N[C@@H](CC(C)C)C(=O)N[C@@H](CC(F)F)C(=O)NCCc1ccc(C(=O)O)cc1Cl)C(C)C` yielded a Ki [1] of 1200 nM.
For `CC(C)COC(=O)N[C@H](C(=O)N1C[C@H](c2ccccc2)C[C@H]1C(=O)N[C@@H](CC(F)F)C(=O)NCCc1cc(/C=C/C(=O)O)ccc1F)C(C)C`, the Ki [1] was 350 nM.
In the case of `CCC(Nc1cccc(CCNC(=O)[C@H](CC(F)F)NC(=O)[C@@H]2C[C@@H](C3CCCCC3)CN2C(=O)[C@@H](NC(=O)OCC(C)C)C(C)C)c1)C(=O)O` (some centres undefined), the Ki [1] is reported as 500 nM.
`CC(C)COC(=O)N[C@H](C(=O)N1C[C@H](c2ccccc2)C[C@H]1C(=O)N[C@@H](CC(F)F)C(=O)NCCc1cccc(OC(C(=O)O)c2ccccc2)c1)C(C)C` (some centres undefined) gave a Ki [1] of 1000 nM.
Molecule `CC(C)COC(=O)N[C@H](C(=O)N1C[C@H](c2ccccc2)C[C@H]1C(=O)N[C@@H](CC(F)F)C(=O)NCCc1cccc(/C=C/C(=O)O)c1F)C(C)C` has a Ki [1] of 400 nM.
`CC(C)COC(=O)N[C@H](C(=O)N1C[C@H](c2ccccc2)C[C@H]1C(=O)N[C@@H](CC(F)F)C(=O)NCCc1cccc(/C=C/C(=O)O)c1)C(C)C` showed a Ki [1] of 1300 nM.
Work on `CC(C)COC(=O)N[C@H](C(=O)N1CC(OCc2ccccc2)C[C@@H]1C(=O)N[C@@H](CC(F)F)C(=O)NCCc1c(F)cc(C(=O)O)cc1F)C(C)C` (stereo in doubt; trans) yielded a clearance [2] of 222 mL/min/kg, an AUC [3] of 0.4 µM·h and a Ki [4] of 550 nM. The Vd [5] was 4.5 L/kg and the half-life [6] was 48 min.
`CC(C)COC(=O)N[C@H](C(=O)N[C@@H](CC(C)C)C(=O)N[C@@H](CC(F)F)C(=O)NCCc1c(F)cc(C(=O)O)cc1F)C(C)C` gave a Ki [1] of 400 nM.
Molecule `CC(C)COC(=O)N[C@H](C(=O)N1CC(C2CCCCC2)C[C@@H]1C(=O)N[C@@H](CC(F)F)C(=O)NCCc1c(F)cc(C(=O)O)cc1F)C(C)C` (some centres undefined) has a clearance [2] of 44 mL/min/kg, an AUC [3] of 2.7 µM·h and a Ki [4] of 350 nM. For the same molecule, the Vd [5] was 0.45 L/kg and the half-life [6] was 15 min.
`CC(C)COC(=O)N[C@H](C(=O)N1C[C@H](C2CCCCC2)C[C@H]1C(=O)N[C@@H](CC(F)F)C(=O)NCCc1c(F)cc(-c2nnn[nH]2)cc1F)C(C)C` showed a clearance [2] of 9 mL/min/kg, an AUC [3] of 12.4 µM·h and a Ki [1] of 100 nM. The Vd [5] was 0.15 L/kg and the half-life [6] was 74 min.
For `CC(C)COC(=O)N[C@H](C(=O)N1C[C@H](C2CCCCC2)C[C@H]1C(=O)N[C@@H](CC(F)F)C(=O)NCCc1c(F)ccc(OCC(=O)O)c1F)C(C)C`, the Ki [1] was 190 nM.
With `COc1ccc2c(O[C@@H]3C[C@@H](C(=O)N[C@@H](CC(F)F)C(=O)NCCc4c(F)cc(C(=O)O)cc4F)N(C(=O)C(NC(=O)OCC(C)C)C(C)(C)C)C3)cc(-c3ccccc3)nc2c1` (some centres undefined) the Ki [1] was 30 nM.

Reference: ChEMBL document CHEMBL1137195, “SAR and pharmacokinetic studies on phenethylamide inhibitors of the hepatitis C virus NS3/NS4A serine protease” (Bioorg Med Chem Lett, 2004)
